Assay results published in paper PMC8230303, “Coumarin-Based Triapine Derivatives and Their Copper(II) Complexes: Synthesis, Cytotoxicity and mR2 RNR Inhibition Activity” (Biomolecules, 2021).
Where two headings read alike, the source gives them in different places.

How the values were obtained:
[1] = design: method as in doi:10.1002/ejic.200901174; conditions: copper(II) complex of the named ligand; cited from earlier work
MRC-5 cells = test: Inhibition of cell viability, colorimetric MTT assay; assay type: cell-based; conditions: Homo sapiens, MRC5, healthy lung fibroblasts, 72 h exposure, mean ± SD
Description: (§1) Human breast adenocarcinoma cells MDA-MB-231, sensitive COLO-205 and multidrug resistant COLO-320 colorectal adenocarcinoma cells and normal human lung fibroblasts MRC-5 were obtained from ATCC. COLO-205 and COLO-320 cells were cultured in RPMI-1640 medium containing 10% foetal bovine serum, MRC-5 cells were cultured in EMEM medium containing 10% foetal bovine serum. MDA-MB-231 cells were cultured in DMEM/high glucose medium containing 10% FBS. Adherent MDA-MB-231 cells were grown in Falcon tissue culture 75 cm^2 flasks and all other cells were grown in tissue culture 25 cm^2 flasks (BD Biosciences, Singapore). All cell lines were grown at 37 °C in a humidified atmosphere of 95% air and 5% CO2. The stock solutions of copper(II) complexes were prepared in DMSO.
(§2) The cytotoxicity of the compounds was determined by colorimetric MTT assay. The cells were harvested from culture flasks by trypsinisation and seeded into Cellstar 96-well microculture plates at the seeding density of 6000 cells per well (6 × 10^4 cells/mL, MDA-MB-231) or 10,000 cells per well (1× 10^5 cells/mL cells/mL, COLO-205, COLO-320 and MRC-5). The cells were allowed to resume exponential growth for 24 h, and subsequently were exposed to drugs at different concentrations in media for 72 h. The drugs were diluted in complete medium at the desired concentration and added to each well (100 µL) and serially diluted to other wells. After exposure for 72 h, the media were replaced with MTT in media (5 mg/mL, 100 µL) and incubated for additional 50 min. Subsequently, the media were aspirated and the purple formazan crystals formed in viable cells were dissolved in DMSO (100 µL). Optical densities were measured at 570 nm using the BioTek H1 Synergy (BioTek, Singapore) microplate reader. The quantity of viable cells was expressed in terms of treated/control (T/C) values in comparison to untreated control cells, and 50% inhibitory concentrations (IC50) were calculated from concentration-effect curves by interpolation. Evaluation was based on at least three independent experiments, each comprising six replicates per concentration level.

COLO-205 cells = test: as above; assay type: cell-based; conditions: Homo sapiens, 72 h exposure, mean ± SD
Description: as §1, §2

COLO-320 cells = test: as above; assay type: cell-based, human; conditions: for IC50: Homo sapiens, COLO 320, MTT assay, 72 h exposure, mean ± SD
Description: as §1, §2

MDA-MB-231 cells [2] = test: as above; assay type: cell-based; conditions: Homo sapiens, 72 h exposure, mean ± SD
Description: as §1, §2

mouse R2 RNR protein = target: T1, mouse R2 RNR protein (Mus musculus, UniProt P11157); design: method as in PMID 32961653; conditions: in 3 min; cited from earlier work
T1 construct: mR2 protein was expressed, purified, and iron-reconstituted as described previously; made in house
T1 sequence (P11157 1-390): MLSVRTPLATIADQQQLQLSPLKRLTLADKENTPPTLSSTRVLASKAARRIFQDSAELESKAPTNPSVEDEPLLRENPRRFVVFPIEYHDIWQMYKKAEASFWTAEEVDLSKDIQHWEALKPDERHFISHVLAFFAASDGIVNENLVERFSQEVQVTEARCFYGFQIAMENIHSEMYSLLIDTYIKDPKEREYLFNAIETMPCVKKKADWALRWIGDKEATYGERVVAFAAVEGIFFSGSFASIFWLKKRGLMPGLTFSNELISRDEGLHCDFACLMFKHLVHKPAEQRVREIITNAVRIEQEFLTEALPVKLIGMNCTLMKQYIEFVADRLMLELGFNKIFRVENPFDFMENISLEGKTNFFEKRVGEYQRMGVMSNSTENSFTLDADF

MDA-MB-231 cells [3] = test system: MDA-MB-231 cells; design: method as in PMID 30384010; conditions: cited from earlier work

| SMILES | logβ[CuL]+ [1] | IC50 (MRC-5 cells) | IC50 (COLO-205 cells) | IC50 (COLO-320 cells) | IC50 (MDA-MB-231 cells [2]) | SF (COLO-320 cells; IC50(MRC-5)/IC50(COLO-320)) | tyrosyl radical reduction (mouse R2 RNR protein) | IC50 (MDA-MB-231 cells [3]) |
| --- | --- | --- | --- | --- | --- | --- | --- | --- |
| CN(C)C(=S)NN=Cc1ncccc1N [APTSC, 3-aminopyridine-2-carboxaldehyde 4N-dimethylthiosemicarbazone] | 13.95(2) |  |  |  |  |  |  |  |
| COc1cccc2c1C(=O)c1c(O)c3c(c(O)c1C2=O)C[C@@](O)(C(=O)CO)C[C@@H]3O[C@H]1C[C@H](N)[C@H](O)[C@H](C)O1 [Doxorubicin, reference compound] |  | 5.2 µM | 3.3 µM | 3.1 µM |  |  |  |  |
| CN(C)C(=S)NN=Cc1cc(COc2ccc3cc(C(=O)N4CCN(Cc5ccnc(C=NNC(=S)N(C)C)c5)CC4)c(=O)oc3c2)ccn1 [H2L^4, 2-((4-((4-(7-((2-((2-(dimethylcarbamothioyl)hydrazineylidene)methyl)pyridin-4-yl)methoxy)-2-oxo-2H-chromene-3-carbonyl)piperazin-1-yl)methyl)pyridin-2-yl)methylene)-N,N-dimethylhydrazine-1-carbothioamide] |  | 4 ± 0.3 µM | 4.4 ± 0.7 µM | 4.6 ± 0.3 µM | 3 ± 0.3 µM | 0.9 |  |  |
| CN(C)C(=S)NN=Cc1cc(CN2CCN(C(=O)c3cc4ccc(O)cc4oc3=O)CC2)ccn1 [HL^1, 2-((4-((4-(7-Hydroxy-2-oxo-2H-chromene-3-carbonyl)piperazin-1-yl)methyl)pyridin-2-yl)methylene)-N,N-dimethylhydrazine-1-carbothioamide] |  | 41 ± 1 µM | 9.2 ± 0.1 µM | 6.7 ± 0.9 µM | 4.8 ± 1.3 µM |  |  |  |
| O=C(c1cc2ccc(O)cc2oc1=O)N1CCN(Cc2ccnc(C=NNC(=S)Nc3ccccc3)c2)CC1 [HL^2, 2-((4-((4-(7-Hydroxy-2-oxo-2H-chromene-3-carbonyl)piperazin-1-yl)methyl)pyridin-2-yl)methylene)-N-phenylhydrazine-1-carbothioamide] |  | 54 ± 5 µM | 89 ± 6 µM | 83 ± 7 µM | 18 ± 4 µM |  |  |  |
| Cc1cc(NCNN=Cc2cc(CN3CCN(C(=O)c4cc5ccc(O)cc5oc4=O)CC3)ccn2)cc(C)c1O [HL^3, 7-Hydroxy-3-(4-((2-((2-(((4-hydroxy-3,5-dimethylphenyl)amino)methyl)hydrazineylidene)-methyl)pyridin-4-yl)methyl)piperazine-1-carbonyl)-2H-chromen-2-one] |  | > 100 µM | 76 ± 8 µM | 90 ± 10 µM | 11 ± 1 µM |  |  |  |
| CN(C)C(=S)NN=Cc1ccccn1 [PTSC, pyridine-2-carboxaldehyde 4N-dimethylthiosemicarbazone] | 13.57(2) |  |  |  |  |  |  |  |
| NC(=S)NN=Cc1ncccc1N [Triapine, 3-aminopyridine-2-carboxaldehyde thiosemicarbazone] | 13.89(3) |  |  |  |  |  | 100% | 1.5 ± 1.1 µM |
